From ChEMBL document CHEMBL1201862, “PubChem BioAssay data set” (2004) come the findings set out here.

Among the test systems are A549; HCT-15; HL-60; HOP-62; LOX IMVI; M14; Malme-3M; NCI-H226; NCI-H460; OVCAR-5; OVCAR-8; PC-3; SF-268; SF-539; SK-MEL-28; SK-OV-3; SW-620; UACC-257; UACC-62; UO-31.
Assay in all cases: inhibition of tumour cell growth, NCI panel, 48 h

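Cultured in 96-well plates, cells were exposed to test compound for 48 hours across five concentrations. The concentration for 50% growth inhibition is given as GI50.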 The source made the active and inactive calls. Rule as the data show it: active = GI50 up to about 1.1 µM and inactive = higher.

For `O=c1[nH]nc(Cc2ccccc2)n1C1CCCC1`, the GI50 was > 100 µM (inactive) in the test with A549; greater than 100 µM with HCT-15; > 100 µM (inactive) in the test with HL-60; > 100 µM (inactive) in the test with HOP-62; > 100 µM (inactive) in the test with LOX IMVI; > 100 µM (inactive) with M14. The GI50 in the test with Malme-3M, with NCI-H226, in the test on NCI-H460, with OVCAR-5, in the test with OVCAR-8 and in the test with PC-3 was > 100 µM (inactive) throughout. In addition, the GI50 in the test with SF-268, in the test with SF-539, in the test on SK-MEL-28, in the test on SK-OV-3, in the test with SW-620 and with UACC-257 was > 100 µM (inactive) in each case. In addition, the GI50 in the test on UACC-62 and in the test with UO-31 was > 100 µM (inactive) in each case.

`O=C1SC(c2ccc(Cl)cc2)(c2ccc(Cl)cc2)c2ccccc21`: the GI50 with A549 was > 100 µM (inactive); with HCT-15, 34.8 µM; with HL-60 it was 28.2 µM (inactive); in the test with HOP-62 it was > 100 µM (inactive); in the test on LOX IMVI, 80.7 µM (inactive); with M14 it was 87.9 µM (inactive). Moreover, the GI50 in the test with Malme-3M is > 100 µM (inactive); in the test on NCI-H226 it was 39.5 µM (inactive); in the test with NCI-H460 it was 63.1 µM (inactive); with OVCAR-5, > 100 µM (inactive); in the test with OVCAR-8, > 100 µM (inactive); with PC-3, 40.4 µM (inactive). The GI50 in the test on SF-268 is > 100 µM (inactive); with SF-539, > 100 µM (inactive); in the test with SK-MEL-28 it was > 100 µM (inactive); in the test with SK-OV-3, > 100 µM (inactive); with SW-620 it was > 100 µM (inactive); in the test with UACC-257 it was 34.3 µM (inactive). The GI50 in the test with UACC-62 is 98.4 µM (inactive); in the test on UO-31, 76.6 µM (inactive).

In the case of `N/C(CSCCSC/C(N)=N/O)=N\O`, the GI50 in the test with A549 was > 100 µM (inactive); with HCT-15 it was greater than 100 µM; in the test on HL-60, > 100 µM (inactive); in the test with HOP-62 it was > 100 µM (inactive); with LOX IMVI it was > 100 µM (inactive); with M14, > 100 µM (inactive). For the same compound, the GI50 in the test on Malme-3M, in the test with NCI-H226, in the test with NCI-H460, with OVCAR-5, in the test on PC-3 and with SF-268 was > 100 µM (inactive) in each case. Besides, the GI50 in the test on SF-539, in the test with SK-MEL-28, with SK-OV-3, in the test with SW-620, in the test with UACC-62 and in the test on UO-31 was > 100 µM (inactive) in each case.

On to `O=C1NC(=S)NC(=O)C1=C/C=C/c1ccc([N+](=O)[O-])cc1`, for which the GI50 is 21.1 µM (inactive) in the test with A549; 14.3 µM with HCT-15; 3.71 µM (inactive) in the test with HL-60; 18.7 µM (inactive) in the test on HOP-62; 6.76 µM (inactive) with LOX IMVI; 15 µM (inactive) in the test on M14. In addition, the GI50 in the test on Malme-3M is 9.66 µM (inactive); with NCI-H226, 19.1 µM (inactive); with NCI-H460, 27 µM (inactive); in the test on OVCAR-5 it was 18.3 µM (inactive); with OVCAR-8, 22.1 µM (inactive); in the test on PC-3 it was 16.9 µM (inactive). The GI50 in the test with SF-268 is 15.2 µM (inactive); with SF-539, 13.8 µM (inactive); with SK-MEL-28, 3.03 µM (inactive); in the test with SK-OV-3 it was 20.2 µM (inactive); in the test on SW-620, 4.9 µM (inactive); in the test with UACC-257, 12.7 µM (inactive). For the same compound, the results for the GI50 with UACC-62 and in the test on UO-31 were 11 µM (inactive) and 18.3 µM (inactive), respectively.

For the compound `CO[C@@]12[C@H](COC(N)=O)C3=C(C(=O)C(C)=C(N)C3=O)N1C[C@H]1[C@@H]2N1C` (stereo not given in full) [PORFIROMYCIN], the GI50 with A549 is 0.489 µM (active); with HCT-15 it was 2.57 µM; in the test with HL-60, 0.34 µM (active); in the test on HOP-62, 0.291 µM (active); in the test on LOX IMVI it was 0.794 µM (active); in the test on M14, 0.65 µM (active). Moreover, the GI50 is 4.1 µM (inactive) with Malme-3M; 8.69 µM (inactive) with NCI-H226; 0.128 µM (active) in the test with NCI-H460; 10.2 µM (inactive) with OVCAR-5; 3.95 µM (inactive) in the test on OVCAR-8; 12.6 µM (inactive) in the test with PC-3. For the same compound, the GI50 was 3.46 µM (inactive) in the test on SF-268; 3.56 µM (inactive) in the test on SF-539; 12.3 µM (inactive) in the test with SK-MEL-28; 4.62 µM (inactive) in the test on SK-OV-3; 1.87 µM (inactive) with SW-620; 8.28 µM (inactive) with UACC-257. The GI50 is 0.466 µM (active) with UACC-62 and 13.9 µM (inactive) in the test with UO-31.

`Cc1ccc(S(=O)(=O)N/N=C2/CCC(C(C)(C)C)CC2Br)cc1` (stereo not given): the GI50 with A549 is 34 µM (inactive); in the test on HCT-15 it was 34 µM; in the test on HL-60, 41.9 µM (inactive); with HOP-62 it was 32.4 µM (inactive); in the test on LOX IMVI, 16.4 µM (inactive); in the test on M14, 17.9 µM (inactive). Besides, the GI50 with Malme-3M is 16.3 µM (inactive); in the test with NCI-H226, 17.8 µM (inactive); in the test with NCI-H460, 34.1 µM (inactive); with OVCAR-5, 19.5 µM (inactive); in the test with OVCAR-8, 26.4 µM (inactive); in the test with PC-3 it was 25.6 µM (inactive). For the same compound, the GI50 in the test with SF-268 was 36.6 µM (inactive); in the test with SF-539, 21.2 µM (inactive); in the test with SK-MEL-28, 19.6 µM (inactive); in the test on SK-OV-3 it was 33.8 µM (inactive); with SW-620, 23.9 µM (inactive); with UACC-257, 23 µM (inactive). Further, the GI50 in the test with UACC-62 is > 10 µM (inactive); in the test with UO-31, 17.2 µM (inactive).

Take `CC(C(=O)N1c2ccccc2Sc2ccccc21)N1c2ccccc2Sc2ccccc21` (stereo not given): the GI50 in the test with A549 is > 100 µM (inactive); in the test with HCT-15 it was greater than 100 µM; in the test with HL-60 it was 77.6 µM (inactive); in the test with HOP-62, > 100 µM (inactive); in the test with LOX IMVI, > 100 µM (inactive); in the test on M14 it was > 100 µM (inactive). For the same compound, the GI50 in the test on Malme-3M was > 100 µM (inactive); with NCI-H226 it was 40.1 µM (inactive); in the test on NCI-H460 it was > 100 µM (inactive); in the test on OVCAR-5 it was > 100 µM (inactive); with OVCAR-8, 97.1 µM (inactive); in the test on PC-3 it was 97.5 µM (inactive). Moreover, the GI50 in the test with SF-268, in the test on SF-539, with SK-MEL-28, in the test with SK-OV-3, with SW-620 and in the test on UACC-257 was > 100 µM (inactive) each time. Further, the GI50 in the test with UACC-62 is > 100 µM (inactive); in the test with UO-31 it was 70.1 µM (inactive).

For `COc1ccc(-c2c(C#N)c(S)n(NS(=O)(=O)c3ccc(C)cc3)c(=O)c2C#N)cc1`, the GI50 in the test on A549 is 27.5 µM (inactive); in the test on HCT-15, 16 µM; in the test with HL-60, 11.1 µM (inactive); in the test on HOP-62, 29.6 µM (inactive); in the test with LOX IMVI, 13.9 µM (inactive); in the test on M14 it was 17.7 µM (inactive). The GI50 was 24.6 µM (inactive) in the test on Malme-3M; 20 µM (inactive) in the test on NCI-H226; 32.6 µM (inactive) in the test on NCI-H460; 16.7 µM (inactive) in the test on OVCAR-5; 20.2 µM (inactive) in the test on OVCAR-8; 18.2 µM (inactive) with PC-3. The GI50 with SF-268 is 23.4 µM (inactive); in the test on SF-539, 14.6 µM (inactive); in the test with SK-MEL-28 it was 24.2 µM (inactive); in the test on SK-OV-3 it was 32.8 µM (inactive); in the test with SW-620 it was 18.6 µM (inactive); with UACC-257 it was 32 µM (inactive). Besides, the GI50 in the test with UACC-62 is 15.6 µM (inactive).

Take `COc1ccccc1-n1c(=O)n(C)c(=O)n1C(C)(C)C`: the GI50 was > 100 µM (inactive) with A549; greater than 100 µM with HCT-15; > 100 µM (inactive) with HL-60; > 100 µM (inactive) in the test with LOX IMVI; > 100 µM (inactive) in the test with M14; > 100 µM (inactive) in the test with Malme-3M. Moreover, the GI50 with NCI-H226, in the test on NCI-H460, in the test on OVCAR-5, in the test with OVCAR-8, with PC-3 and with SF-268 was > 100 µM (inactive) each time. Further, the GI50 in the test on SF-539, in the test on SK-MEL-28, in the test with SK-OV-3, in the test with SW-620, in the test with UACC-257 and with UACC-62 was > 100 µM (inactive) each time. The GI50 in the test with UO-31 is > 100 µM (inactive).

As for `CN(C)c1cccc2c(S(=O)(=O)NCCN)cccc12` [DANSYL ETHYLENEDIAMINE], the GI50 was > 100 µM (inactive) in the test on A549; greater than 100 µM in the test with HCT-15; 9.91 µM (inactive) in the test with HL-60; > 100 µM (inactive) with HOP-62; > 100 µM (inactive) in the test on LOX IMVI; > 100 µM (inactive) in the test on M14. Moreover, the GI50 with Malme-3M, with NCI-H226, with NCI-H460, in the test on OVCAR-5, in the test on PC-3 and with SF-268 was > 100 µM (inactive) throughout. The GI50 in the test with SF-539, with SK-MEL-28, in the test on SK-OV-3, in the test with SW-620, with UACC-257 and with UACC-62 was > 100 µM (inactive) each time. Also, in the test with UO-31, the GI50 was 98.9 µM (inactive).
